Source: ChEMBL document CHEMBL5625263, “Discovery of a novel series of selective macrocyclic PKCTheta inhibitors” (Bioorg Med Chem Lett, 2024)
≈ marks a conversion by molar mass, not a printed value.

What was measured:
[1] = Solubility of the compound; format: physicochemical
[2] = Apparent permeability of a compound in human Caco-2 cells; format: ADME, cell-based
[3] = Metabolic stability in human hepatocytes assessed as intrinsic clearance measured per 10^6 cells; format: ADME, cell-based, Hepatocyte; conditions: read-out: CLH
[4] = molecular target: T1, Protein kinase C theta type (Homo sapiens, UniProt Q04759); test: Inhibition of PKC theta (unknown origin) in presence of ATP at Km
[5] = molecular target: T1, Protein kinase C theta type; test: Inhibition of PKC theta (unknown origin) in presence of 1 mM ATP
[6] = molecular target: T2, Protein kinase C alpha type (Homo sapiens, UniProt P17252); test: Inhibition of PKC alpha (unknown origin) in presence of ATP at Km
[7] = molecular target: T2, Protein kinase C alpha type; test: Inhibition of PKC alpha (unknown origin) in presence of 1 mM ATP
[8] = molecular target: T1, Protein kinase C theta type; test: Inhibition of PKC theta in TCR-stimulated human PBMC assessed as inhibition of IL-2 release; format: cell-based
[9] = Efflux ratio of apparent permeability across basolateral to apical side over apical to basolateral side in human Caco-2 cells; format: ADME, cell-based

T1 sequence (Q04759 whole entry): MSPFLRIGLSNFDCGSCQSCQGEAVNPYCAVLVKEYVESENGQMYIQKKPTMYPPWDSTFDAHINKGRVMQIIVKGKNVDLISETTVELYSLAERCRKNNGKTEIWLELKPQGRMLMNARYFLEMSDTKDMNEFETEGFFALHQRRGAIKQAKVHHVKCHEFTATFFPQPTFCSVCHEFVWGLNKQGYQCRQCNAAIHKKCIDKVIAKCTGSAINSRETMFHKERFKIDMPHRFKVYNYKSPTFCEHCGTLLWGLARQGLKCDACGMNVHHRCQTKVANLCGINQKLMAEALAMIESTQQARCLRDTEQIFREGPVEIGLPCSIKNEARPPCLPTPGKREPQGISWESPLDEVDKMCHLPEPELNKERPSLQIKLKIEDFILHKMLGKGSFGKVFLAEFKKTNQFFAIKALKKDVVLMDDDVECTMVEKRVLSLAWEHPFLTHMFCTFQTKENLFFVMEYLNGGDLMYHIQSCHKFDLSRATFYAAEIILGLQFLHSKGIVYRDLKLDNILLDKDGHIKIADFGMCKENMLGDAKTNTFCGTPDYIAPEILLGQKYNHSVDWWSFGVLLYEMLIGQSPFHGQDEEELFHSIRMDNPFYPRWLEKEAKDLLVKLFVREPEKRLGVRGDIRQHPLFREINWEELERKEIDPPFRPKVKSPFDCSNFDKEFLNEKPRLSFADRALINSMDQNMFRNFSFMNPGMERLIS

| Compound | solubility [1] [µM] | Papp [2] [×10⁻⁶ cm/s] | hepatocyte CLint [3] [µL/min/1e6 cells] | IC50 [4] [µM] | IC50 [5] [µM] | IC50 [6] [µM] | IC50 [7] [µM] | IC50 [8] [µM] | efflux ratio [9] |
| --- | --- | --- | --- | --- | --- | --- | --- | --- | --- |
| CC1(C)NC(=O)c2ccc3cc2N1CCCOc1ccnc2[nH]c(=O)n-3c12 | 9 (≈ 3.29 µg/mL) | 0.3 |  |  |  |  |  |  |  |
| CC1(C)NC(=O)c2ccc3nc2N1CCCOc1ccnc2[nH]c(=O)n-3c12 | 1.9 (≈ 0.696 µg/mL) | 1.3 |  |  |  |  |  |  |  |
| C[C@H](c1ccccc1)N1c2cc(-n3c(=O)[nH]c4ncccc43)ccc2C(=O)NC1(C)C | 54 (≈ 22.3 µg/mL) | 7.4 | 11 |  |  |  |  |  |  |
| O=c1ccn2c3nc(ccc13)-n1c(=O)[nH]c3nccc(c31)OCCCC2 | 0.9 (≈ 0.314 µg/mL) | 0.2 | 6 |  |  |  |  |  |  |
| NC(=O)c1ccc2nc1OCCCCOc1ccnc3[nH]c(=O)n-2c13 | 5.5 (≈ 1.88 µg/mL) | 0.2 |  |  |  |  |  |  |  |
| CC1CCC(C)c2ccnc3ccc(nc23)-n2c(=O)[nH]c3nccc(c32)O1 (stereo unspecified) |  |  | 19 | < 0.0005 | 0.0039 | 0.065 | 0.84 | 0.028 |  |
| CC1CCCOc2nc(c(-c3cnc[nH]3)cc2C(N)=O)-n2c(=O)[nH]c3nccc(c32)O1 (stereo unspecified) |  |  |  | 0.0014 | 0.015 | 0.92 | 6.7 | 0.089 |  |
| CN1CCCCOc2ccnc3[nH]c(=O)n(c23)-c2ccc(C(N)=O)c1n2 | 16 (≈ 5.67 µg/mL) | 2.2 |  |  |  |  |  |  |  |
| CC1(C)NC(=O)c2ccc3cc2N1CCCCOc1ccnc2[nH]c(=O)n-3c12 | 12 (≈ 4.55 µg/mL) | 0.7 |  |  |  |  |  |  |  |
| CC1(C)NC(=O)c2ccc3nc2N1CCCCOc1ccnc2[nH]c(=O)n-3c12 | 1.5 (≈ 0.571 µg/mL) | 0.1 |  |  |  |  |  |  |  |
| CC1CCn2ccc(=O)c3cc(F)c(nc32)-n2c(=O)[nH]c3nccc(c32)O1 (stereo unspecified) | 274 (≈ 101 µg/mL) | 0.5 | < 4 | < 0.0005 | 0.005 | 0.44 | 3.7 | 0.027 | 53 |
| O=c1[nH]c2nccc3c2n1-c1cccc(n1)OCCCCO3 | 3 (≈ 0.895 µg/mL) | 15 | 12 | 0.0092 |  | > 10 |  |  | 0.9 |
| CC1CCCOc2ccnc3[nH]c(=O)n(c23)-c2ccc3c(=O)ccn1c3n2 (stereo unspecified) | 296 (≈ 108 µg/mL) | 3.1 | 17 | < 0.0005 | < 0.0005 | 0.068 | 0.679 | 0.0076 | 12 |
| CN1CCCCOc2ccnc3[nH]c(=O)n(c23)-c2cc1ccc2Cl | 4 (≈ 1.38 µg/mL) |  | < 1 |  |  |  |  |  |  |
| CC1CCCOc2ccnc3[nH]c(=O)n(c23)-c2cccc(n2)O1 (stereo unspecified) | 180 (≈ 56.2 µg/mL) | 32 | 32 | < 0.0005 | 0.0036 | 0.259 | 2.2 | 0.028 | 0.7 |
| CC1CCCOc2nc(c(-c3nnc[nH]3)cc2C(N)=O)-n2c(=O)[nH]c3nccc(c32)O1 (stereo unspecified) |  |  |  | 0.0033 |  | 1.1 |  | 0.16 |  |
| CC1CCCOc2nc(c(-c3ccn[nH]3)cc2C(N)=O)-n2c(=O)[nH]c3nccc(c32)O1 (stereo unspecified) |  |  |  | 0.047 |  | 8.2 |  |  |  |
| CC1CCCOc2ccnc3[nH]c(=O)n(c23)-c2nc(c(C(N)=O)cc2-c2ncc[nH]2)O1 (stereo unspecified) |  |  | 22 | < 0.001 | 0.0012 | 0.27 | 2.2 | 0.015 |  |
| CC1CCCOc2cccc(n2)-n2c(=O)[nH]c3nccc(c32)O1 (stereo unspecified) | 32 (≈ 9.99 µg/mL) | 31 | 6.1 | 0.005 | 0.061 | 1.9 | > 10 | 0.236 | 0.6 |
| CC1CCCn2ccc(=O)c3ccc(nc32)-n2c(=O)[nH]c3nccc(c32)O1 (stereo unspecified) | 275 (≈ 99.9 µg/mL) | 1.3 | < 4 | 0.0012 | 0.015 | 0.88 | 6.6 | 0.052 | 23 |
| CN1CCN(c2nc(C3=C(c4c[nH]c5ccccc45)C(=O)NC3=O)c3ccccc3n2)CC1 [SOTRASTAURIN] |  |  |  | 0.0007 | 0.0034 |  |  | 0.049 |  |
